Converted amounts (≈) assume the structure as drawn.
Key:
Type in all cases: cell-based
[1] = system: AmpC-derepressed Pseudomonas aeruginosa mutant strain (S-3028); test: Antibacterial activity evaluation test, MIC by broth microdilution (CLSI); details: Pseudomonas aeruginosa
Method in brief: (§1)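 Overnight Mueller Hinton agar cultures were suspended to 0.5 McFarland, diluted 10-fold and used to inoculate cation-adjusted Mueller Hinton broth containing test compound. Plates were incubated at 35° C. for 16 to 20 hours; MIC (μg/mL) was the lowest concentration without visible growth.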

[2] = system: CTX-M-15-containing Escherichia coli strain (TK-1747); test: as above; details: Escherichia coli
Method in brief: as §1

[3] = system: GES-19 and GES-20-containing Pseudomonas aeruginosa strain (S-3759); test: as above; details: Pseudomonas aeruginosa
Method in brief: as §1

[4] = system: IMP-1-containing Pseudomonas aeruginosa strain (S-2838); test: as above; details: Pseudomonas aeruginosa
Method in brief: as §1

[5] = system: KPC-2-containing Klebsiella pneumoniae strain (Y-995); test: as above; details: Klebsiella pneumoniae
Method in brief: as §1

[6] = system: NDM-1-containing Klebsiella pneumoniae strain (Y-1007); test: as above; details: Klebsiella pneumoniae
Method in brief: as §1

[7] = system: OXA-48-containing Klebsiella pneumoniae strain (Y-1062); test: as above; details: Klebsiella pneumoniae
Method in brief: as §1

[8] = system: Pseudomonas aeruginosa strain ATCC27853; test: as above; details: Pseudomonas aeruginosa, ATCC27853
Method in brief: as §1

[9] = system: VIM-2-containing Pseudomonas aeruginosa strain (S-3779); test: as above; details: Pseudomonas aeruginosa
Method in brief: as §1

[10] = system: Klebsiella pneumoniae ATCC13883 strain (Klebsiella pneumoniae A); test: Combinational effect of test compound and antibacterial compound, checkerboard FIC index
Procedure: (§2) By using a broth microdilution method, the combinational effect of antibacterial activity of a test compound and an antibacterial compound was evaluated.
(§3) As bacterial strains, an Escherichia coli ATCC25922 strain (hereinafter, called Escherichia coli A), a Klebsiella pneumoniae ATCC13883 strain (hereinafter, called Klebsiella pneumoniae A), and a Pseudomonas aeruginosa ATCC27853 strain (hereinafter, called Pseudomonas aeruginosa A) were used.
(§4) The minimum inhibitory concentration (hereinafter, called MIC) was measured according to the Clinical and Laboratory Standards Institute (CLSI) standard method by using the following broth microdilution method.
(§5) The bacterial cells that had been cultured overnight on a Mueller Hinton agar medium were scraped off, suspended at a density equivalent to 0.5 McFarland standard. The obtained suspension was diluted at 10 fold, thereby obtaining an inoculum. Cation-adjusted Mueller Hinton media containing only a test compound, containing only an antibacterial compound, or containing a test compound and an antibacterial compound were inoculated with 0.005 mL of the inoculum, and the cells were cultured at 35° C. for 18 to 20 hours. The minimum drug concentration at which the growth of bacteria was not visually observed was defined as MIC (μg/mL).
(§6) The FIC Index is the minimum value calculated by the following formula.
(§7) FIC Index=(MIC value obtained in a case where test compound is used in combination/MIC value obtained in a case where test compound is used alone)+(MIC value obtained in a case where antibacterial compound is used in combination/MIC value obtained in a case where antibacterial compound is used alone)
(§8) In a case where the FIC Index was 0.5 or less, it was decided that the use of two drugs in combination brings about a synergistic effect.
(§9) In a case where the FIC Index was more than 0.5 and 1 or less, it was decided that the use of two drugs in combination brings about an additive effect. (Diagnostic Microbiology and Infectious Disease, 2004, Vol. 49, p. 197)

[11] = system: Pseudomonas aeruginosa ATCC27853 strain (Pseudomonas aeruginosa A); test: as above; details: for FIC index: Pseudomonas aeruginosa A, checkerboard
Procedure: as §2, §3, §4, §5, §6, §7, §8, §9

[12] = system: Klebsiella pneumoniae Y-1133 strain producing NDM-1, OXA-48, and CTX-M-15 (strain C); test: MIC of test compound alone or with β-lactamase inhibitor at 4 μg/mL; details: Klebsiella pneumoniae
Method in brief: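 Broth microdilution MIC against K. pneumoniae Y-1133 (NDM-1, OXA-48, CTX-M-15), test compound alone or combined with a β-lactamase inhibitor at 4 μg/mL.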

[13] = system: Escherichia coli TK-3113 strain producing IMP-8 (strain D); test: as above; details: Escherichia coli
Method in brief: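 Broth microdilution MIC of the test compound, run alone and with a β-lactamase inhibitor fixed at 4 μg/mL. Strains were IMP-8-producing E. coli TK-3113 and other β-lactamase producers, including K. pneumoniae Y-1069 carrying OXA-48 and CTX-M-15.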

[14] = test compound alone (β-lactamase inhibitor N/A)

CC(C)(O/N=C(\C(=O)NC1C(=O)N2C[C@@](C(=O)O)(N3CCN(NC(=O)C(=O)c4ccc(O)c(O)c4Cl)C(=O)C3=O)S[C@H]12)c1csc(N)n1)C(=O)O (stereo partly drawn) [Example 126, (3R,5R,6R)-6-((Z)-2-(2-aminothiazol-4-yl)-2-(((2-carboxypropan-2-yl)oxy)imino)aceta-mido)-3-(4-(2-(2-chloro-3,4-dihydroxy-phenyl)-2-oxoaceta-mido)-2,3-dioxopipera-zin-1-yl)-7-oxo-4-thia-1-azabicyclo[3.2.0]-heptane-3-carboxylic acid]
MIC [1]: 0.5 µg/mL (≈ 0.65 µM) | MIC [2]: < 0.06 µg/mL | MIC [3]: 0.5 µg/mL (≈ 0.65 µM) | MIC [4]: 2 µg/mL (≈ 2.6 µM) | MIC [5]: 0.12 µg/mL (≈ 0.156 µM) | MIC [6]: < 0.06 µg/mL | MIC [7]: 1 µg/mL (≈ 1.3 µM) | MIC [8]: 1 µg/mL (≈ 1.3 µM) | MIC [9]: 1 µg/mL (≈ 1.3 µM) | FIC index ([10]; in combination with AMK): 0.75 | FIC index ([10]; in combination with CAZ): 0.625 | FIC index ([10]; in combination with IPM): 0.375 | FIC index ([10]; in combination with LVFX): 0.75 | FIC index ([10]; in combination with MPC): 0.188 | FIC index ([10]; in combination with PIPC): <0.5 | FIC index ([10]; in combination with PL-B): 0.625 | FIC index ([10]; in combination with RFP): 0.563 | FIC index ([10]; in combination with VCM): <0.625 | FIC index ([11]; in combination with AMK): 0.5 | FIC index ([11]; in combination with CAZ): 0.563 | FIC index ([11]; in combination with IPM): 0.188 | FIC index ([11]; in combination with LVFX): 0.188 | FIC index ([11]; in combination with PIPC): 0.75 | FIC index ([11]; in combination with PL-B): 0.188 | FIC index ([11]; in combination with RFP): 0.375 | FIC index ([11]; in combination with TC): 0.25 | FIC index ([11]; in combination with VCM): 0.266 | combinational effect with other antibacterial compounds ([11]; main strains of Gram-negative bacteria, summary of Tables 40 to 42): additive or synergistic effect | MIC ([12]; AVI added at 4 μg/mL): 0.5 µg/mL | MIC ([12]; NAC added at 4 μg/mL): 0.03 µg/mL | MIC ([12]; ZID added at 4 μg/mL): < 0.015 µg/mL | MIC [12, 14]: 1 µg/mL | MIC ([13]; NAC added at 4 μg/mL): 0.03 µg/mL | MIC ([13]; VAB added at 4 μg/mL): 2 µg/mL | MIC ([13]; ZID added at 4 μg/mL): 0.03 µg/mL | MIC [13, 14]: 4 µg/mL

Source: patent publication US20220241249A1, “PHARMACEUTICAL COMPOSITION AND KIT CONTAINING NOVEL PENAM DERIVATIVE OR SALT THEREOF AND ONE OR MORE COMPOUNDS SELECTED FROM beta-LACTAMASE INHIBITORY COMPOUND AND ANTIBACTERIAL COMPOUND OR SALTS THEREOF” (priority 2019, published 2022)
